BigSolDB 2.1

[1] = in 1-methoxy-2-propanol, 293.15 K
[2] = in 1-methoxy-2-propanol, 298.15 K
[3] = in 1-methoxy-2-propanol, 303.15 K
[4] = in 1-methoxy-2-propanol, 308.15 K
[5] = in 1-methoxy-2-propanol, 313.15 K
[6] = in 1-methoxy-2-propanol, 318.15 K
[7] = in 1-methoxy-2-propanol, 323.15 K
[8] = in 1-methoxy-2-propanol, 328.15 K
[9] = in 1-methoxy-2-propanol, 333.15 K
[10] = in 1-methoxy-2-propanol, 338.15 K
[11] = in 1-methoxy-2-propanol, 343.15 K
[12] = in 1-methoxy-2-propyl acetate, 293.15 K
[13] = in 1-methoxy-2-propyl acetate, 298.15 K
[14] = in 1-methoxy-2-propyl acetate, 303.15 K
[15] = in 1-methoxy-2-propyl acetate, 308.15 K
[16] = in 1-methoxy-2-propyl acetate, 313.15 K
[17] = in 1-methoxy-2-propyl acetate, 318.15 K
[18] = in 1-methoxy-2-propyl acetate, 323.15 K
[19] = in 1-methoxy-2-propyl acetate, 328.15 K
[20] = in 1-methoxy-2-propyl acetate, 333.15 K
[21] = in 1-methoxy-2-propyl acetate, 338.15 K
[22] = in 1-methoxy-2-propyl acetate, 343.15 K
[23] = in 1-propoxy-2-propanol, 293.15 K
[24] = in 1-propoxy-2-propanol, 298.15 K
[25] = in 1-propoxy-2-propanol, 303.15 K
[26] = in 1-propoxy-2-propanol, 308.15 K
[27] = in 1-propoxy-2-propanol, 313.15 K
[28] = in 1-propoxy-2-propanol, 318.15 K
[29] = in 1-propoxy-2-propanol, 323.15 K
[30] = in 1-propoxy-2-propanol, 328.15 K
[31] = in 1-propoxy-2-propanol, 333.15 K
[32] = in 1-propoxy-2-propanol, 338.15 K
[33] = in 1-propoxy-2-propanol, 343.15 K
[34] = in 2-(2-methoxypropoxy) propanol, 293.15 K
[35] = in 2-(2-methoxypropoxy) propanol, 298.15 K
[36] = in 2-(2-methoxypropoxy) propanol, 303.15 K
[37] = in 2-(2-methoxypropoxy) propanol, 308.15 K
[38] = in 2-(2-methoxypropoxy) propanol, 313.15 K
[39] = in 2-(2-methoxypropoxy) propanol, 318.15 K
[40] = in 2-(2-methoxypropoxy) propanol, 323.15 K
[41] = in 2-(2-methoxypropoxy) propanol, 328.15 K
[42] = in 2-(2-methoxypropoxy) propanol, 333.15 K
[43] = in 2-(2-methoxypropoxy) propanol, 338.15 K
[44] = in 2-(2-methoxypropoxy) propanol, 343.15 K

Which solubility (mole fraction) [1] does the source give for `O=P(NCc1cccc(CNP(=O)(Oc2ccccc2)Oc2ccccc2)c1)(Oc1ccccc1)Oc1ccccc1` here?
The solubility (mole fraction) was 0.000609.

What about the solubility (mole fraction) [2] of the same molecule?
Its solubility (mole fraction) is 0.000758.

What about the solubility (mole fraction) [3] of the same molecule?
Its solubility (mole fraction) is 0.000936.

And the solubility (mole fraction) [4]?
Its solubility (mole fraction) is 0.00114.

What about the solubility (mole fraction) [5] of the same molecule?
Its solubility (mole fraction) is 0.00138.

What about the solubility (mole fraction) [6] of the same molecule?
The solubility (mole fraction) was 0.00169.

And the solubility (mole fraction) [7]?
Its solubility (mole fraction) is 0.00204.

What about the solubility (mole fraction) [8] of the same molecule?
Its solubility (mole fraction) is 0.00255.

And the solubility (mole fraction) [9]?
Its solubility (mole fraction) is 0.00305.

And the solubility (mole fraction) [10]?
Its solubility (mole fraction) is 0.00374.

What about the solubility (mole fraction) [11] of the same molecule?
The solubility (mole fraction) was 0.00432.

What about the solubility (mole fraction) [12] of the same molecule?
Its solubility (mole fraction) is 0.00319.

What about the solubility (mole fraction) [13] of the same molecule?
Its solubility (mole fraction) is 0.00373.

What about the solubility (mole fraction) [14] of the same molecule?
The solubility (mole fraction) was 0.0043.

What about the solubility (mole fraction) [15] of the same molecule?
Its solubility (mole fraction) is 0.0049.

What about the solubility (mole fraction) [16] of the same molecule?
Its solubility (mole fraction) is 0.00547.

And the solubility (mole fraction) [17]?
The solubility (mole fraction) was 0.00635.

And the solubility (mole fraction) [18]?
Its solubility (mole fraction) is 0.00708.

What about the solubility (mole fraction) [19] of the same molecule?
The solubility (mole fraction) was 0.0079.

And the solubility (mole fraction) [20]?
The solubility (mole fraction) was 0.00891.

And the solubility (mole fraction) [21]?
Its solubility (mole fraction) is 0.01.

What about the solubility (mole fraction) [22] of the same molecule?
Its solubility (mole fraction) is 0.0115.

What about the solubility (mole fraction) [23] of the same molecule?
Its solubility (mole fraction) is 0.000508.

And the solubility (mole fraction) [24]?
Its solubility (mole fraction) is 0.000636.

What about the solubility (mole fraction) [25] of the same molecule?
Its solubility (mole fraction) is 0.000766.

What about the solubility (mole fraction) [26] of the same molecule?
The solubility (mole fraction) was 0.000964.

What about the solubility (mole fraction) [27] of the same molecule?
Its solubility (mole fraction) is 0.00121.

What about the solubility (mole fraction) [28] of the same molecule?
Its solubility (mole fraction) is 0.00144.

And the solubility (mole fraction) [29]?
The solubility (mole fraction) was 0.00182.

What about the solubility (mole fraction) [30] of the same molecule?
Its solubility (mole fraction) is 0.00216.

What about the solubility (mole fraction) [31] of the same molecule?
Its solubility (mole fraction) is 0.00259.

What about the solubility (mole fraction) [32] of the same molecule?
The solubility (mole fraction) was 0.00316.

And the solubility (mole fraction) [33]?
Its solubility (mole fraction) is 0.00374.

And the solubility (mole fraction) [34]?
The solubility (mole fraction) was 0.00267.

And the solubility (mole fraction) [35]?
Its solubility (mole fraction) is 0.00331.

What about the solubility (mole fraction) [36] of the same molecule?
Its solubility (mole fraction) is 0.00401.

What about the solubility (mole fraction) [37] of the same molecule?
The solubility (mole fraction) was 0.00487.

And the solubility (mole fraction) [38]?
The solubility (mole fraction) was 0.00584.

And the solubility (mole fraction) [39]?
Its solubility (mole fraction) is 0.00714.

What about the solubility (mole fraction) [40] of the same molecule?
The solubility (mole fraction) was 0.00829.

What about the solubility (mole fraction) [41] of the same molecule?
Its solubility (mole fraction) is 0.00995.

And the solubility (mole fraction) [42]?
The solubility (mole fraction) was 0.0116.

And the solubility (mole fraction) [43]?
Its solubility (mole fraction) is 0.0138.

What about the solubility (mole fraction) [44] of the same molecule?
The solubility (mole fraction) was 0.0156.

Which solubility (mole fraction) [1] does the source give for `O=P(Oc1ccccc1)(Oc1ccccc1)N1CCN(P(=O)(Oc2ccccc2)Oc2ccccc2)CC1` here?
Its solubility (mole fraction) is 0.000356.

What about the solubility (mole fraction) [2] of the same molecule?
Its solubility (mole fraction) is 0.000447.

What about the solubility (mole fraction) [3] of the same molecule?
The solubility (mole fraction) was 0.000589.

What about the solubility (mole fraction) [4] of the same molecule?
Its solubility (mole fraction) is 0.000782.

What about the solubility (mole fraction) [5] of the same molecule?
The solubility (mole fraction) was 0.00102.

And the solubility (mole fraction) [6]?
The solubility (mole fraction) was 0.00132.

What about the solubility (mole fraction) [7] of the same molecule?
Its solubility (mole fraction) is 0.00168.

And the solubility (mole fraction) [8]?
Its solubility (mole fraction) is 0.00215.

And the solubility (mole fraction) [9]?
The solubility (mole fraction) was 0.00282.

What about the solubility (mole fraction) [10] of the same molecule?
The solubility (mole fraction) was 0.00367.

What about the solubility (mole fraction) [11] of the same molecule?
Its solubility (mole fraction) is 0.00457.

What about the solubility (mole fraction) [12] of the same molecule?
The solubility (mole fraction) was 0.000351.

What about the solubility (mole fraction) [13] of the same molecule?
The solubility (mole fraction) was 0.000443.

What about the solubility (mole fraction) [14] of the same molecule?
The solubility (mole fraction) was 0.000517.

What about the solubility (mole fraction) [15] of the same molecule?
Its solubility (mole fraction) is 0.00063.

What about the solubility (mole fraction) [16] of the same molecule?
The solubility (mole fraction) was 0.000762.

What about the solubility (mole fraction) [17] of the same molecule?
The solubility (mole fraction) was 0.000945.

And the solubility (mole fraction) [18]?
Its solubility (mole fraction) is 0.00115.

What about the solubility (mole fraction) [19] of the same molecule?
The solubility (mole fraction) was 0.00141.

And the solubility (mole fraction) [20]?
The solubility (mole fraction) was 0.0017.

What about the solubility (mole fraction) [21] of the same molecule?
Its solubility (mole fraction) is 0.00204.

And the solubility (mole fraction) [22]?
Its solubility (mole fraction) is 0.00248.

And the solubility (mole fraction) [23]?
Its solubility (mole fraction) is 0.000353.

What about the solubility (mole fraction) [24] of the same molecule?
Its solubility (mole fraction) is 0.000445.

What about the solubility (mole fraction) [25] of the same molecule?
Its solubility (mole fraction) is 0.000564.

What about the solubility (mole fraction) [26] of the same molecule?
The solubility (mole fraction) was 0.000715.

And the solubility (mole fraction) [27]?
The solubility (mole fraction) was 0.000893.

And the solubility (mole fraction) [28]?
The solubility (mole fraction) was 0.00112.

And the solubility (mole fraction) [29]?
The solubility (mole fraction) was 0.00141.

And the solubility (mole fraction) [30]?
Its solubility (mole fraction) is 0.00177.

What about the solubility (mole fraction) [31] of the same molecule?
The solubility (mole fraction) was 0.00219.

What about the solubility (mole fraction) [32] of the same molecule?
The solubility (mole fraction) was 0.00275.

What about the solubility (mole fraction) [33] of the same molecule?
The solubility (mole fraction) was 0.00339.

And the solubility (mole fraction) [34]?
The solubility (mole fraction) was 0.000974.

And the solubility (mole fraction) [35]?
The solubility (mole fraction) was 0.00117.

And the solubility (mole fraction) [36]?
The solubility (mole fraction) was 0.00139.

What about the solubility (mole fraction) [37] of the same molecule?
The solubility (mole fraction) was 0.00167.

And the solubility (mole fraction) [38]?
Its solubility (mole fraction) is 0.00199.

What about the solubility (mole fraction) [39] of the same molecule?
The solubility (mole fraction) was 0.00236.

And the solubility (mole fraction) [40]?
Its solubility (mole fraction) is 0.0029.

What about the solubility (mole fraction) [41] of the same molecule?
Its solubility (mole fraction) is 0.00344.

What about the solubility (mole fraction) [42] of the same molecule?
The solubility (mole fraction) was 0.00408.

What about the solubility (mole fraction) [43] of the same molecule?
The solubility (mole fraction) was 0.00474.

And the solubility (mole fraction) [44]?
Its solubility (mole fraction) is 0.00562.
